# From US20190000079A1, “Methods and Formulation for Treatment of Nuts, Seeds, Grains, Cereals, Plant Growth Media, and Plants” (Lipotec Laboratories, LLC, priority 2015, published 2019)
# What was measured:
# Assay in all cases: Growth experiment, coated vs uncoated seeds planted in soil
# soybeans = type: in vivo, soybean
# Excerpt: (§1) Groups of coated and uncoated soybeans, corn, sunflower, and turfgrass were planted in soil and monitored for germination.
# corn = type: in vivo
# Excerpt: as §1
# sunflower = type: in vivo
# Excerpt: as §1
smiles,measurement,setting,value
"COc1cc(/C=C/C(=O)CC(=O)/C=C/c2ccc(O)c(OC)c2)ccc1O [curcumin, Curcumin]",germination time of coated seeds,"soybeans; soybean seeds coated with DMSO and curcumin, planted in soil, same as uncoated",2 days
same,"height and diameter, coated vs uncoated","soybeans; soybean, after 3 weeks",equal height and diameter
same,germination time of coated seeds,"corn; corn seeds coated with DMSO and curcumin, planted in soil, same as uncoated",2 days
same,"height and diameter, coated vs uncoated","corn; corn, after 3 weeks",equal height and diameter
same,germination time of coated seeds,"sunflower; sunflower seeds coated with DMSO and curcumin, planted in soil, same as uncoated",2 days
same,"height and diameter, coated vs uncoated","sunflower; sunflower, after 3 weeks",equal height and diameter
